# Reference: ChEMBL document CHEMBL1143457, “Benzyl ether structure-activity relationships in a series of ketopiperazine-based renin inhibitors” (Bioorg Med Chem Lett, 2005)
# Experiments:
# [1] = Distribution coefficient at PH 7.4 was determined; format: physicochemical; settings: octanol/water
# CYP3A4 = CYP3A4 (Homo sapiens, UniProt P08684); assay: Inhibition of CYP3A4 at 3 uM was measured using fluorogenic substrate 7-Benzyloxy-4-(trifluoromethyl)-coumarin; format: ADME; settings: probe 7-Benzyloxy-4-(trifluoromethyl)-coumarin
# Sequence of CYP3A4 (P08684 whole entry): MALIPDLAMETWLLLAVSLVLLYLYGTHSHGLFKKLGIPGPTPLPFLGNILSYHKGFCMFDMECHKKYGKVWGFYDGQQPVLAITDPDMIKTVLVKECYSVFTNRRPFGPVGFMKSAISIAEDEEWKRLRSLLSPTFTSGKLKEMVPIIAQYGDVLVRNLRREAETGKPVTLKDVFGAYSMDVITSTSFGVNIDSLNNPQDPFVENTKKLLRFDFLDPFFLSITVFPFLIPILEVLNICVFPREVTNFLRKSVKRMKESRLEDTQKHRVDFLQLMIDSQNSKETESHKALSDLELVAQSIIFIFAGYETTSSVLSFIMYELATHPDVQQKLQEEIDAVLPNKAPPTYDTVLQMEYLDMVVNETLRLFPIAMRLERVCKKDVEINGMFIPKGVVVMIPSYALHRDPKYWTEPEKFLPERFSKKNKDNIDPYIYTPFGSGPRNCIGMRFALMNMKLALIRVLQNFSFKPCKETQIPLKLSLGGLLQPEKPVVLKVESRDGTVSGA
# [2] = Apparent solubility was measured at PH 6.5 by nepholometric method; format: ADME; settings: buffer
# Renin = molecular target: T1, Renin (Homo sapiens, UniProt P00797); assay: Inhibitory activity against renin in fluorescent tGFP assay
# T1 sequence (P00797 whole entry): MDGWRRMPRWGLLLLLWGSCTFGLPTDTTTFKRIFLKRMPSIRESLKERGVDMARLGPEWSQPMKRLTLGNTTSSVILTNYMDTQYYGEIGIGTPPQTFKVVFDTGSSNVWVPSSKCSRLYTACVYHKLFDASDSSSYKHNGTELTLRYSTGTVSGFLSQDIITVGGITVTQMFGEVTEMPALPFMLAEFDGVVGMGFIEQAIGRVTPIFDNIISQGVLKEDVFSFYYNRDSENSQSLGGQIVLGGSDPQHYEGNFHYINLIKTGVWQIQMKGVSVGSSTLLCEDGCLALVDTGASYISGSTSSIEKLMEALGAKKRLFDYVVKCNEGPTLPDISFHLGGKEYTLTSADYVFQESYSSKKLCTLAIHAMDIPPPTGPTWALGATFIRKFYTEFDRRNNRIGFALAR
Structure (SMILES),IC50 (Renin) [nM],also measured
COc1ccccc1COCCCOc1ccc(N2C(=O)CNC[C@@H]2COCc2ccc(F)c(C(F)(F)F)c2)cc1,140,logD [1]: 3.7; inhibition at 3 µM (CYP3A4): 87%; solubility kinetic [2]: 7 µg/mL
COc1ccccc1COCCCOc1ccc(N2C(=O)CNC[C@@H]2COCc2ccccc2OC)cc1,900,–
COc1ccccc1COCCCOc1ccc(N2C(=O)CNC[C@@H]2COCc2ccc(Cl)c(C(F)(F)F)c2)cc1,120,logD [1]: 3.7; inhibition at 3 µM (CYP3A4): 97%; solubility kinetic [2]: 3 µg/mL
COc1ccccc1COCCCOc1ccc(N2C(=O)CNC[C@@H]2COCc2ccc(F)c(F)c2)cc1,250,–
COc1ccccc1COCCCOc1ccc(N2C(=O)CNC[C@@H]2COCc2ccc(F)cc2Cl)cc1,410,–
COc1ccccc1COCCCOc1ccc(N2C(=O)CNC[C@@H]2COCc2ccc(F)c(C)c2)cc1,270,–
COc1cccc(COC[C@H]2CNCC(=O)N2c2ccc(OCCCOCc3ccccc3OC)cc2)c1,600,–
COc1ccccc1COCCCOc1ccc(N2C(=O)CNC[C@@H]2COCc2ccccc2F)cc1,230,–
COc1ccccc1COCCCOc1ccc(N2C(=O)CNC[C@@H]2COCc2ccncc2)cc1,> 1000,–
COc1ccccc1COCCCOc1ccc(N2C(=O)CNC[C@@H]2COCc2ccccn2)cc1,> 1000,–
COc1ccccc1COCCCOc1ccc(N2C(=O)CNC[C@@H]2COCc2cccc(Cl)c2)cc1,330,–
COc1ccccc1COCCCOc1ccc(N2C(=O)CNC[C@@H]2COCc2cccc(C#N)c2)cc1,1200,–
COc1ccccc1COCCCOc1ccc(N2C(=O)CNC[C@@H]2COCc2cc(F)cc(F)c2)cc1,1600,–
COc1ccccc1COCCCOc1ccc(N2C(=O)CNC[C@@H]2COCc2ccc(C)c(Cl)c2)cc1,260,–
COc1ccccc1COCCCOc1ccc(N2C(=O)CNC[C@@H]2COCc2cc(Cl)cc(Cl)c2)cc1,180,–
COc1ccccc1COCCCOc1ccc(N2C(=O)CNC[C@@H]2COCc2cccnc2)cc1,120,logD [1]: 2.9; inhibition at 3 µM (CYP3A4): 44%; solubility kinetic [2]: 100 µg/mL
COc1ccccc1COCCCOc1ccc(N2C(=O)CNC[C@H]2COCc2cccnc2)cc1,> 10000,–
COc1ccccc1COCCCOc1ccc(N2C(=O)CNC[C@@H]2COCc2ccccc2C(F)(F)F)cc1,270,–
COc1ccccc1COCCCOc1ccc(N2C(=O)CNC[C@@H]2COCc2cccc(C(F)(F)F)c2F)cc1,270,–
COc1ccccc1COCCCOc1ccc(N2C(=O)CNC[C@H]2COCc2ccc(Cl)c(C(F)(F)F)c2)cc1,594,–
COc1ccccc1COCCCOc1ccc(N2C(=O)CNC[C@@H]2COCc2cccc(OC(F)(F)F)c2)cc1,410,–
COc1ccccc1COCCCOc1ccc(N2C(=O)CNC[C@@H]2COCc2ccc(C(F)(F)F)cc2)cc1,6800,–
COc1ccccc1COCCCOc1ccc(N2C(=O)CNC[C@@H]2COc2ccc3c(c2)N(CCNC(C)=O)CCC3)cc1,0.4,–
COc1ccccc1COCCCOc1ccc(N2C(=O)CNC[C@@H]2COCc2cccc(C(F)(F)F)c2)cc1,230,–
COc1ccccc1COCCCOc1ccc(N2C(=O)CNC[C@@H]2COCc2ccc(Cl)cc2)cc1,300,–
